Source: patent publication US10765639B2, “Nanocapsules, methods of manufacture and uses thereof” (ADISSEO FRANCE S.A.S., priority 2016, dated 2020)

How the values were obtained:
[1] = Bioavailability of TAC in vivo in roosters (plasma free tocopherol after force-feeding); design: species or system ISA Brown roosters; AUC 24 h (Room 1) / AUC 96 h (Room 1) / AUC 24 h (Room 2) / AUC 96 h (Room 2): concentration or dose not given beside the values; conditions: for AUC 24 h (Room 1) / AUC 96 h (Room 1): Room 1, force-feeding; for AUC 24 h (Room 2) / AUC 96 h (Room 2): Room 2, force-feeding
Source text: The experimental scheme is described in detail in Preveraud et al. 2015, British Poultry Science, 56: 1; 94-102.
Briefly, two rooms with 60 ISA Brown roosters are placed in individual cages. One week before assigning the treatments, the roosters are fed with a feed devoid of vitamin E.
The roosters (n=10 roosters per treatment) were force-fed with different TAC solutions in water.
Room 1: Dry nanocapsules C24 of example 1, • TOL and TAC, in the form of oil, as a blank
Room 2: C40 dry nanocapsules of example 1, • TOL and TAC, in the form of oil, as a blank.
After the force-feeding administration of the vitamin E products put in a capsule, blood samples were taken at 0, 6, 12, 24, 48 and 96 h post force-feeding. After centrifugation, the plasma is decanted and the free tocopherol is measured up by HPLC.

[2] = oral administration, native vitamin E; cited from earlier work

Molecule | AUC 24 h (Room 1) [1] [µg/mL/h] | AUC 96 h (Room 1) [1] [µg/mL/h] | AUC 24 h (Room 2) [1] [µg/mL/h] | AUC 96 h (Room 2) [1] [µg/mL/h] | Bioavailability in animals when orally administered [2] [%] | %/TAC 24 h (Room 1) ([1]; Room 1, 24 h, diffusion percentage relative to TAC) | %/TAC 96 h (Room 1) ([1]; Room 1, 96 h, diffusion percentage relative to TAC) | %/TAC 24 h (Room 2) ([1]; Room 2, 24 h, diffusion percentage relative to TAC) | %/TAC 96 h (Room 2) ([1]; Room 2, 96 h, diffusion percentage relative to TAC)
CC(=O)Oc1c(C)c(C)c2c(c1C)CCC(C)(CCC[C@H](C)CCC[C@H](C)CCCC(C)C)O2 (stereo partly drawn) [TAC, alpha-tocopherol acetate] | 206 | 597 | 142 | 340 | – | – | – | – | –
tocopherol [TOL] | 307 | 1193 | 309 | 320 | ≤ 50 | +49% | +100% | +118% | +124%
